Marks after values point to notes of the source that are not given here.
Columns and labels:
sucrose loaded rat = experiment: Sucrose loaded rat model (SLM), oral tolerance test; assay type: in vivo; set-up: % Antihyperglycemic activity SLM: concentration or dose not given beside the values; conditions: for % Antihyperglycemic activity SLM: Table 2, sucrose loaded rat
From the text: On the day of experiment blood glucose of all the overnight fasted animals was checked by Glucostrips (Roche) using Glucometer (ACCU-CHEK II; Roche Diagnostics, USA). […] Animals were divided into groups consisting of five animals in each. […] The test compounds and standard drug was always prepared in the vehicle 1% gum acacia. […] Food (not water) was removed from the cages during the experimental period. […] Comparing the AUC of test sample or drug treated groups compared to control group determined the percent improvement in OGTT by test sample and standard drugs and termed as antihyperglycaemic activity. Statistical analysis between the groups was done by employing Students t test

[1] = system: sucrose challenged low dosed STZ-induced diabetic rats; experiment: Sucrose challenged low dosed streptozotocin-induced diabetic rats (STZ-S); assay type: in vivo, rat; conditions: for % Antihyperglycemic activity STZ-S 0-5 hr / % Antihyperglycemic activity STZ-S 0-24 hr: Table 2
Description: Fasting blood glucose level of each animal was measured after 48 hours post STZ injection by Glucostrips (Roche) using Glucometer (ACCU-CHEK II; Roche Diagnostics, USA) and animals showing blood glucose level above 280 mg/dl were considered as diabetic. The diabetic rats with fasting blood glucose values varying between […] were included in this study. Animals were divided into groups consisting of five animals in each. Group one was considered as a control group, where as the other groups were termed as experimental groups. […] The test samples and standard drug (Metformin) was always prepared in the vehicle 1% gum acacia. […] Food (not water) was removed from the cages during the experimental period. […] The percent decline in AUC of the experiment group compared to sham treated control group termed as % antihyperglycaemic activity. Statistical analysis between the groups was done by employing Students t test.

[2] = system: high fructose high fat fed Syrian golden hamsters; experiment: Antidyslipidemic activity in high fructose high fat fed Syrian golden hamsters; assay type: in vivo
Description: Male Syrian golden hamsters weighing 100-120 g were divided into groups each containing six animals. Dyslipidemia was produced by feeding the animals with high fructose high fat diet (60% fructose, 13% fat) for 30 to 40 days. Dyslipidemic hamsters were divided into groups based on their Serum lipid profile. The dyslipidemic animals had free access to HFD and water throughout the experimental period. The fine suspension of 14b was fed orally at a dose of 30 mg/kg for 7 days to the animals. Control animals were given drug vehicle only, served as sham treated control. Body weight and diet intake of each animal group were recorded daily to check the effect of the test samples on food intake and body weight of the animals. At the end of the experiment period i.e. on day 8th, the blood of each animal was withdrawn from retro-orbital plexus. After keeping the tubes for 15 min. in cold, Serum was separated. Biochemical analysis of Serum was performed on the same day for triglycerides (TG), total cholesterol (TC) and HDL-cholesterol and LDL-cholesterol contents using Cobas Integra 400 plus analyzer kits. All statistical analysis will be performed with Graph Pad Prism Software. One way ANOVA, all pair wise multiple comparison procedure (Tukey test). Data will be reported as mean±SEM.

[3] = system: STZ-induced diabetic rats; experiment: Streptozotocin-induced diabetic rat model (STZ); assay type: in vivo; conditions: 100 mg/kg
Description: Male albino rats (Sprague Dawley Strain) of body weight 160±20 g were procured from the colony of CDRI Animal House. 4 to 5 animals were kept in one polypropylene cage and acclimatized for one week in the new environment. The animals were made diabetic by injecting streptozotocin (STZ) intraperitoneally to the overnight starved animals at a dose of 60 mg/kg prepared in 100 mM citrate buffer (pH 4.5). Fasting blood glucose level of each animal was measured after 48 hours post STZ injection by Glucostrips (Roche) using Glucometer (ACCU-CHEK II; Roche Diagnostics, USA) and animals showing blood glucose level above 280 mg/dl were considered as diabetic. The diabetic rats with fasting blood glucose values varying between 280-450 mg/dl were included in this study. Animals were divided into groups consisting of five animals in each. Group one was considered as a control group, where as the other groups were termed as experimental groups. Rats of experimental group were usually given 100 mg/kg body weight of the test samples unless stated otherwise and standard drug i.e. metformin, respectively. The test samples and standard drug i.e. metformin was always prepared in the vehicle 1% gum acacia. 30 min post administration of the test samples/vehicle/standard drug, blood glucose levels of the animals of all the groups were measured at 30, 60, 90, 120, 180, 240, 300 and 1440 min. Food (not water) was removed from the cages during the experimental period. A plot was drawn between time and blood glucose levels on x and y axis, respectively and the area under curve (AUC) between 0 to 300 min were calculated of each group. The percent decline in AUC of the experiment group compared to sham treated control group termed as % antihyperglycaemic activity. Statistical comparison between the groups was done by employing Student's ‘t’ test.

With `CC(=NO)[C@H]1CC[C@H]2[C@@H]3CC=C4C[C@@H](O)CC[C@]4(C)[C@H]3CC[C@]12C` [Compound 10., 3β-hydroxy-pregna-5-en-20-one-oxime] the “% Antihyperglycemic activity SLM” value (sucrose loaded rat) was 13.9%.

For `C/C(=N\OCCN1CCCCC1)C1=CC[C@H]2[C@@H]3CC=C4C[C@@H](O)CC[C@]4(C)[C@H]3CC[C@]12C` [Compound 11a, 3β-Hydroxy-pregna-5,16-dien-20-one-O-(2-piperidinyl-ethyl)-oxime], the “% Antihyperglycemic activity SLM” value (sucrose loaded rat) was 27.15% and the melting point was 135 to 138 °C.

In the case of `C/C(=N\OCCN1CCCCCC1)C1=CC[C@H]2[C@@H]3CC=C4C[C@@H](O)CC[C@]4(C)[C@H]3CC[C@]12C` [Compound 11b, 3β-Hydroxypregna-5,16-dien-20-one-O-(2-azepan-1-yl-ethyl)-oxime], the “% Antihyperglycemic activity SLM” value (sucrose loaded rat) is reported as 16.5% and the melting point is reported as 127 to 130 °C.

For `C/C(=N\OCCN1CCOCC1)C1=CC[C@H]2[C@@H]3CC=C4C[C@@H](O)CC[C@]4(C)[C@H]3CC[C@]12C` [Compound 11c, 3β-Hydroxypregna-5,16-dien-20-one-O-(2-morpholin-4-yl-ethyl)-oxime], the “% Antihyperglycemic activity SLM” value (sucrose loaded rat) was 10.2%.

With `CCN(CC)CCO/N=C(\C)C1=CC[C@H]2[C@@H]3CC=C4C[C@@H](O)CC[C@]4(C)[C@H]3CC[C@]12C` [Compound 11d, 3β-Hydroxypregna-5,16-dien-20-one-O-(2-diethylamino-ethyl)-oxime] the “% Antihyperglycemic activity SLM” value (sucrose loaded rat) was 13.1% and the melting point was 156 to 160 °C.

With `C/C(=N\OCCN1CCCC1)[C@H]1CC[C@H]2[C@@H]3CC=C4C[C@@H](O)CC[C@]4(C)[C@H]3CC[C@]12C` [Compound 14a, 3β-Hydroxy-pregna-5-en-20-one-O-(2-pyrrolidin-1-yl-ethyl)-oxime] the “% Antihyperglycemic activity SLM” value (sucrose loaded rat) was 42.4%, the “anti-diabetic activity, in words” value (sucrose loaded rat; all the models including db/+ mice models) was “better anti-diabetic activity” and the “% Antihyperglycemic activity STZ-S 0-5 hr” value [1] was 9.96%. For the same compound, the “% Antihyperglycemic activity STZ-S 0-24 hr” value [1] was 3.07% and the melting point was 140 to 142 °C.

For `C/C(=N\OCC(O)CNC(C)(C)C)[C@H]1CC[C@H]2[C@@H]3CC=C4C[C@@H](O)CC[C@]4(C)[C@H]3CC[C@]12C` (stereo partly drawn) [Compound 16a, 3β-Hydroxy-pregna-5-en-20-one-O-[2-hydroxy-3-tert.-butylamino-propyl]-oxime], the “% Antihyperglycemic activity SLM” value (sucrose loaded rat) was 37.7% and the melting point was > 200 °C.

In the case of `C/C(=N\OCC(O)CNC(C)C)C1CCC2C3CC=C4CC(O)CCC4(C)C3CCC12C` (stereo not drawn) [Compound 16b, 3β-Hydroxy-pregna-5-en-20-one-O-[2-hydroxy-3-iso-propylamino-Propyl)-oxime], the “% Antihyperglycemic activity SLM” value (sucrose loaded rat) is reported as 13.6%.

In the case of `C/C(=N/OCC(O)CN1CCN(c2ccccc2)CC1)[C@H]1CC[C@H]2[C@@H]3CC=C4C[C@@H](O)CC[C@]4(C)[C@H]3CC[C@]12C` (stereo partly drawn) [Compound 16c, 3β-Hydroxy-pregna-5-en-20-one-O-[2-hydroxy-3-(4-phenyl-piperazin-1-yl)-propyl]-oxime], the “% Antihyperglycemic activity SLM” value (sucrose loaded rat) is reported as 17.8%.

In the case of `COc1ccccc1N1CCN(CC(O)CO/N=C(/C)C2CCC3C4CC=C5CC(O)CCC5(C)C4CCC23C)CC1` (stereo not drawn) [Compound 16d, 3β-Hydroxy-pregna-5-en-20-one-O-{2-hydroxy-3-[4-(2-methoxyphenyl)-Piperzin-1-yl]-propyl}-oxime], the “% Antihyperglycemic activity SLM” value (sucrose loaded rat) is reported as 13.9% and the melting point is reported as 145 to 149 °C.

With `CC(C)OC(=O)C(C)(C)Oc1ccc(C(=O)c2ccc(Cl)cc2)cc1` [Fenofibrate, reference compound] the “enhancement of lipoprotein lipase” value ([2]; 30 mg/kg oral) was 21.1%, the “enhancement of serum HDL-cholesterol” value ([2]; 30 mg/kg oral) was 9.8% and the “lowering of LDL-cholesterol (LDL-C) level” value ([2]; 30 mg/kg oral) was 30.1%. For the same compound, the “lowering of serum glycerol level” value ([2]; 30 mg/kg oral) was 22.4%, the “lowering of serum triglycerides level (TG)” value ([2]; 30 mg/kg oral) was 28.9% and the “Glycerol, change vs HFD control (in parentheses)” value ([2]; 30 mg/kg p.o., 7 days) was “(−22.4)* %”. The “HDL-C, change vs HFD control (in parentheses)” value ([2]; 30 mg/kg p.o., 7 days) was “(+9.80) %”, the “LDL-C, change vs HFD control (in parentheses)” value ([2]; 30 mg/kg p.o., 7 days) was “(−30.1)** %” and the “Lipoprotein lipase, change vs HFD control (in parentheses)” value ([2]; 30 mg/kg p.o., 7 days) was “(+21.1)* %”. For the same compound, the “TG, change vs HFD control (in parentheses)” value ([2]; 30 mg/kg p.o., 7 days) was “(−28.9)* %”, the Chol ([2]; 30 mg/kg p.o., 7 days, serum) was 277.8 ± 22.3 mg/dL and the HDL-C ([2]; 30 mg/kg p.o., 7 days, serum) was 156.8 ± 12.8 mg/dL. The Lipoprotein lipase ([2]; 30 mg/kg p.o., 7 days, serum) was 36.8 ± 3.60 U/L, the NEFA ([2]; 30 mg/kg p.o., 7 days, serum) was 5.40 ± 0.30 mmol/L and the TG ([2]; 30 mg/kg p.o., 7 days, serum) was 529.8 ± 30.7 mg/dL.

In the case of `CN(C)C(=N)N=C(N)N` [Metformin, reference compound], the “Blood glucose profile, 0 min post glucose load” value (sucrose loaded rat; 100 mg/kg) is reported as 94.8 ± 2.1 mg/dL, the “Blood glucose profile, 30 min post glucose load” value (sucrose loaded rat; 100 mg/kg) is reported as 111.4 ± 7.8 mg/dL and the “Blood glucose profile, 60 min post glucose load” value (sucrose loaded rat; 100 mg/kg) is reported as 105.8 ± 2.1 mg/dL. The “Blood glucose profile, 90 min post glucose load” value (sucrose loaded rat; 100 mg/kg) was 94.0 ± 2.0 mg/dL, the “Blood glucose profile, 120 min post glucose load” value (sucrose loaded rat; 100 mg/kg) was 84.2 ± 1.3 mg/dL and the “% Antihyperglycaemic activity (improvement in OGTT post sucrose load)” value (sucrose loaded rat; 100 mg/kg, AUC 0-120 min vs control, normal rats) was 24.4*** %. The “% Antihyperglycemic activity SLM” value (sucrose loaded rat) was 21.1%, the “% Antihyperglycemic activity 0-300 min” value ([1]; 100 mg/kg) was 23.7%** and the “% Antihyperglycemic activity 0-1440 min” value ([1]; 100 mg/kg) was 23.1%**. For the same compound, the “Blood glucose level, 0 min post sucrose load” value ([1]; 100 mg/kg) was 222.2 ± 19.9 mg/dL, the “Blood glucose level, 30 min post sucrose load” value ([1]; 100 mg/kg) was 457.4 ± 17.2 mg/dL and the “Blood glucose level, 60 min post sucrose load” value ([1]; 100 mg/kg) was 524.2 ± 18.9 mg/dL. The “Blood glucose level, 90 min post sucrose load” value ([1]; 100 mg/kg) was 468.2 ± 11.3 mg/dL, the “Blood glucose level, 120 min post sucrose load” value ([1]; 100 mg/kg) was 416.0 ± 12.2 mg/dL and the “Blood glucose level, 180 min post sucrose load” value ([1]; 100 mg/kg) was 373.6 ± 11.4 mg/dL. For the same compound, the “Blood glucose level, 240 min post sucrose load” value ([1]; 100 mg/kg) was 345.0 ± 10.6 mg/dL, the “Blood glucose level, 300 min post sucrose load” value ([1]; 100 mg/kg) was 310.8 ± 2.6 mg/dL and the “Blood glucose level, 1440 min post sucrose load” value ([1]; 100 mg/kg) was 392.8 ± 9.9 mg/dL. The “% Antihyperglycemic activity 0-300 min” value ([1]; 100 mg/kg, listed as metformin) was 23.7%, the “% Antihyperglycemic activity 0-1440 min” value ([1]; 100 mg/kg, listed as metformin) was 23.1% and the “% Antihyperglycemic activity STZ-S 0-5 hr” value [1] was 25.8%. For the same compound, the “% Antihyperglycemic activity STZ-S 0-24 hr” value [1] was 33.2%, the “Blood glucose level, 0 min post sucrose load” value [3] was 358.4 ± 14.5 mg/dL and the “Blood glucose level, 30 min post sucrose load” value [3] was 450.0 ± 21.8 mg/dL. The “Blood glucose level, 60 min post sucrose load” value [3] was 419.0 ± 10.5 mg/dL, the “Blood glucose level, 90 min post sucrose load” value [3] was 399.0 ± 7.7 mg/dL and the “Blood glucose level, 120 min post sucrose load” value [3] was 351.0 ± 16.0 mg/dL. The “Blood glucose level, 180 min post sucrose load” value [3] was 349.6 ± 10.1 mg/dL, the “Blood glucose level, 240 min post sucrose load” value [3] was 337.0 ± 7.7 mg/dL and the “Blood glucose level, 300 min post sucrose load” value [3] was 299.8 ± 5.0 mg/dL. For the same compound, the “Blood glucose level, 1440 min post sucrose load” value [3] was 445.6 ± 13.9 mg/dL.
